Measurements published in article PMC12684391, “Mechanistic insights into the monotherapy and combination potential of FEN1 inhibition in cancer therapy” (Nucleic Acids Research, 2025).

Columns and labels:
[1] = system: FEN1 chromatin enrichment in HeLa cells; experiment: Chromatin retention assay (immunofluorescence, CSK-extracted cells); assay type: cell-based; conditions: 24 h treatment
Protocol: HeLa cells were seeded at a density of 4000 cells per well in 100 μl of media in collagen-coated 96-well plates (Revvity, #6055700). Sixteen to twenty-four hours after seeding, compounds were dispensed using the D300e digital dispenser (Tecan) to generate a multipoint dose–response curve, equalized to final DMSO concentration. After 24 h, cells were washed with phosphate buffered saline (PBS) and pre-extracted with 50 μl of ice-cold cytoskeletal (CSK) buffer [10 mM PIPES pH 6.8 (Sigma–Aldrich, P8203-50G), 100 mM NaCl (VWR, 27810.295), 300 mM sucrose (Sigma–Aldrich, S0389-500G), 1.5 mM MgCl2 (VWR, 8760.29), 5 mM EDTA (Sigma–Aldrich, E7889-100ML), 0.4% Triton […] (Sigma–Aldrich, T9285-500ML)], for 4 min on ice. Cells were then washed with PBS and fixed in 4% paraformaldehyde (PFA) (ChemCruz, sc-281692) for 10 min at room temperature.
For immunofluorescence staining, cells were washed with PBS then blocked and permeabilized with PBS containing 0.5% bovine serum albumin (BSA) and 0.5% Triton X-100 (blocking buffer) for 1 h at room temperature. Cells were then stained with the indicated markers (FEN1 or PARP1) by incubation with primary antibodies (Supplementary Table S5) diluted in blocking buffer, at room temperature for 4 h (FEN1) or overnight at 4°C (PARP1). […]

NanoLuc-FEN1 = biological target: T1, NanoLuc-FEN1 (Homo sapiens, UniProt P39748); experiment: NanoBRET cellular target engagement assay in HEK-293 cells; assay type: cell-based; conditions: more potent than MSC781
T1 construct: host or cells: HEK-293
T1 sequence (P39748 whole entry): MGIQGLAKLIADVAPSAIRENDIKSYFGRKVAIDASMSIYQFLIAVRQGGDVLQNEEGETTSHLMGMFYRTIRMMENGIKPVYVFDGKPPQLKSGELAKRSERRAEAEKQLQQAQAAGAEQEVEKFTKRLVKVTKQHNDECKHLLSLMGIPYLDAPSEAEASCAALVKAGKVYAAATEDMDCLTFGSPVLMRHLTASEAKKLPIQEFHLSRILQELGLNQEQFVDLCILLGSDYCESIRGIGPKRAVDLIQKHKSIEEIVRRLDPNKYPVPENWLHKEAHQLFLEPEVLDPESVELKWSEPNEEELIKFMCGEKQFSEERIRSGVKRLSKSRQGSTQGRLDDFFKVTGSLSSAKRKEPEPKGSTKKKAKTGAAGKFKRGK
Protocol: The NanoBRET™ assay was set-up and performed by Promega, Madison, USA [40]. The tracer compound (“tracer 6”) was synthesized based on an in-house compound. A NanoLuc®-FEN1 expression plasmid was transiently transfected into HEK-293 cells and 20 µl of subsequent cell/DNA suspension dispensed into wells of 384-well assay plates. Tracer 6 (final concentration 125 nM) and test compounds (10 step 1:3 dilution from a top concentration of 10 µM) in 100% DMSO were dispensed with a Echo Labcyte (Beckman Coulter) in technical duplicates.
To induce NanoLuc activity, 10 µl of 3× detection substrate NanoBRET™ Nano-GLO® Live Cell Solution in OptiMEM with digitonin (final concentration 150 µg/ml) were added per well. Kinetics were followed by luminescence multimode reader (DonorEm 450nm/AcceptorEm 610 nm) for 1 h. BRET ratios were calculated and resulting mBRET values were graphed versus compound concentrations and fitted to a nonlinear regression curve (four parameters) to determine IC50 values.
In this assay, NanoBRET occurs between a fluorescent moiety (acceptor) on a tracer molecule and the NanoLuc tag (donor) on FEN1 that are in close proximity.

FEN1 (1-380) FL-6His = biological target: T2, FEN1 (1-380) FL-6His (Homo sapiens, UniProt P39748); experiment: Differential scanning fluorimetry; assay type: binding; conditions: compound 100 µM
T2 construct: FEN1(1-380)-6His was immobilized on a CM5 chip; made in house; host or cells: Escherichia coli
T2 sequence (P39748 whole entry): as above
Protocol: A volume of 100 nl of each compound at stock concentration of 10 mM was dispensed into a 384-well skirted PCR Plate (MicroAmp™ Optical plate) using a D300e digital dispenser (Tecan). Wells were normalized such that each contained 1% (v/v) DMSO and final compound concentration of 100 µM.
FEN1 (1-380) FL-6His protein (1.25×) and protein 5× thermal shift dye (Thermo Fisher Scientific) were prepared separately in freshly prepared differential scanning fluorimetry (DSF) assay buffer (20 mM Tris–HCl pH 7.5, 100 mM potassium chloride, 5 mM magnesium chloride, and 1 mM dithiothreitol). Eight microliters of 1.25× Fen1 (10 µM) was added to the appropriate well, plate sealed with aluminium sealing film (Axygen), and centrifuged at 500 × g for 1 min before incubating for 30 min at 4°C. After the incubation period, the plate was centrifuged again at 500 × g for 1 min and 2 µl of 5× protein thermal shift dye was added. […] Fluorescence was measured using a Quantstudio pro7.0 qPCR machine (Thermo Fisher Scientific) using internal optical ×1 filter (470 ± 15 nm) for excitation and m3 filter (586 ± 10 nm) for emission.
Each experiment was run in quadruplicates and melting temperatures (Tm) calculated as the inflection point of the derivative function using the protein thermal shift software (Thermo Fisher Scientific). DeltaTm was calculated using the Tm of protein with 1% DMSO as reference.

MDA-MB-436 cells = experiment: Colony formation assay; assay type: cell-based
Protocol: Exponentially growing DLD-1, DLD-1 BRCA2^KO, SUM149PT, and MDA-MB-436 were seeded on 24-well plates at densities of 100, 400, 500, or 650 cells/well, respectively. Cells were treated with a serial dilution of FEN1 inhibitor and incubated for 11 days (DLD-1 and SUM149PT) or 14 days (DLD-1 BRCA2^KO and MDA-MB-436). Colonies were washed with PBS, fixed with 70% ethanol, and stained with 1% crystal violet solution (Sigma–Aldrich). Excess crystal violet solution was washed off using tap water and images were acquired using a GelCount Scanner (Oxford Optronix). Dye was solubilized with 10% acetic acid (VWR) and absorbance at 595 nm measured using a CLARIOstar plate reader (BMG LABTECH Ltd.). Raw absorbance data for each cell line were normalized to DMSO treatment. Data were fitted with a nonlinear regression curve (four parameters) to determine EC50 (half maximal inhibitory concentration) values.

Compound: C[C@H](Oc1nn2c(c(O)c1=O)C(=O)N1CCOC[C@@H]1C2)c1ccc2ccc(Cl)cc2c1 [MSC778]
- EC50 ([1]; Homo sapiens, unchallenged HeLa cells): 1200 nM
- NanoBRET potency relative to MSC781 (NanoLuc-FEN1): 23 fold
- Thermal stabilization of FEN1 (DSF) (FEN1 (1-380) FL-6His): thermally stabilized FEN1
- EC50 (MDA-MB-436 cells; Homo sapiens, 336 h, MDA-MB-436, 14 days, read-out: Colony survival EC50): 65 nM
- Enhancement in sensitivity in colony survival versus 7-day viability assay (MDA-MB-436 cells; MDA-MB-436): 10 fold

Compound: C[C@@H](Oc1nn2c(c(O)c1=O)C(=O)N1CCOC[C@@H]1C2)c1ccc2ccc(Cl)cc2c1 [MSC781]
- Chromatin enrichment (of either FEN1 or PARP1) and DNA damage signalling ([1]; HeLa cells): not enhanced
